Test results from patent US20060252807A1, “Novel ortho-terphenyl inhibitors of p38 kinase and methods of treating inflammatory disorders” (Kalypsys, Inc., priority 2005, published 2006).

Each compound was assayed against T1, active p38 alpha enzyme (Upstate Biotechnology) (Homo sapiens, UniProt Q16539) (assay: p38α biochemical assay (ATP turnover, luminescent detection, Cambrex PKlight)). Conditions: p38α kinase; Table 1 Biological Activity.
T1 construct: purchased Upstate Biotechnology
In short: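 p38α + MapkapK2 (whole protein substrate) + 1.4 uM ATP final; Tris/MOPS buffer with MgCl2, CaCl2, EGTA, EDTA, glycerol, β-ME, BSA; 2 h at 30C; luminescent detection of remaining ATP.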

T1 sequence (Q16539 whole entry): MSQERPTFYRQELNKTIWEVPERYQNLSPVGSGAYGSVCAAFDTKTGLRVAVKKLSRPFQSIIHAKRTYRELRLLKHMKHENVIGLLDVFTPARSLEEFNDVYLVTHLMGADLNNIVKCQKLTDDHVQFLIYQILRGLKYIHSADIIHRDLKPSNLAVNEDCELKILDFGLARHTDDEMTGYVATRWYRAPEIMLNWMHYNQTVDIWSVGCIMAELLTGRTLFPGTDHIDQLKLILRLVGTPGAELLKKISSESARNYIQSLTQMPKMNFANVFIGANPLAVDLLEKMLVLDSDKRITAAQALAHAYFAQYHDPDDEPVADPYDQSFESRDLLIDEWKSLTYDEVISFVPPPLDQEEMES

| IC50 | Structure (SMILES) |
| --- | --- |
| > 1000 nM | CC(C)NC(=O)c1csc(-c2oc(CNc3ccc(Cl)c(Cl)c3)nc2-c2ccc(F)cc2)n1 [Example 1357] |
| > 1000 nM | Cc1cccc(C(C)(C)C)c1NCc1nc(-c2ccc(F)cc2)c(-c2nc(C(=O)NC(C)C)cs2)o1 [Example 1358] |
| > 1000 nM | CC(C)NC(=O)c1csc(-c2oc(CNc3ccc(N(C)C)cc3)nc2-c2ccc(F)cc2)n1 [Example 1359] |
| > 1000 nM | CC(C)NC(=O)c1csc(-c2oc(CNc3ccccc3-c3ccccc3)nc2-c2ccc(F)cc2)n1 [Example 1360] |
| > 1000 nM | CC(C)NC(=O)c1csc(-c2oc(CNc3ccc(OC(F)(F)F)cc3)nc2-c2ccc(F)cc2)n1 [Example 1361] |
| > 1000 nM | CC(C)NC(=O)c1csc(-c2oc(CNc3c(C(C)C)cccc3C(C)C)nc2-c2ccc(F)cc2)n1 [Example 1362] |
| > 1000 nM | CC(C)NC(=O)c1csc(-c2oc(CNc3ccc(F)cc3C(F)(F)F)nc2-c2ccc(F)cc2)n1 [Example 1363] |
| > 1000 nM | CC(C)NC(=O)c1csc(-c2oc(CNc3cc(C(F)(F)F)ccc3F)nc2-c2ccc(F)cc2)n1 [Example 1364] |
| > 1000 nM | CC(C)NC(=O)c1csc(-c2oc(CNc3ccc(F)c(C(F)(F)F)c3)nc2-c2ccc(F)cc2)n1 [Example 1365] |
| > 1000 nM | CCOc1ccc(OCC)c(NCc2nc(-c3ccc(F)cc3)c(-c3nc(C(=O)NC(C)C)cs3)o2)c1 [Example 1366] |
| > 1000 nM | CC(C)NC(=O)c1csc(-c2oc(CNc3cc(Cl)c(Cl)c(Cl)c3)nc2-c2ccc(F)cc2)n1 [Example 1367] |
| > 1000 nM | CC(C)NC(=O)c1csc(-c2oc(CNc3ccccc3C(=O)c3ccccc3)nc2-c2ccc(F)cc2)n1 [Example 1368] |
| > 1000 nM | CC(C)NC(=O)c1csc(-c2oc(CNc3ccccc3COc3ccccc3)nc2-c2ccc(F)cc2)n1 [Example 1369] |
| > 1000 nM | COc1ccc(-c2ccccc2)cc1NCc1nc(-c2ccc(F)cc2)c(-c2nc(C(=O)NC(C)C)cs2)o1 [Example 1370] |
| > 1000 nM | CC(C)NC(=O)c1csc(-c2oc(CNc3ncccc3OCc3ccccc3)nc2-c2ccc(F)cc2)n1 [Example 1371] |
| > 1000 nM | CC(C)NC(=O)c1csc(-c2oc(CNc3cc(C(F)(F)F)ccc3C(F)(F)F)nc2-c2ccc(F)cc2)n1 [Example 1372] |
| > 1000 nM | CC(C)NC(=O)c1csc(-c2oc(CNc3cc(C(F)(F)F)cc(C(F)(F)F)c3)nc2-c2ccc(F)cc2)n1 [Example 1373] |
| > 1000 nM | CC(C)NC(=O)c1csc(-c2oc(CNc3ccc(C(F)(F)F)cc3C(F)(F)F)nc2-c2ccc(F)cc2)n1 [Example 1374] |
| > 1000 nM | CC(C)NC(=O)c1csc(-c2c(-c3ccc(F)cc3)noc2CNCCO)n1 [Example 1375] |
| > 1000 nM | CCOC(=O)N1CCC(NCc2onc(-c3ccc(F)cc3)c2-c2nc(C(=O)NC(C)C)cs2)CC1 [Example 1376] |
| > 1000 nM | COCCNCc1onc(-c2ccc(F)cc2)c1-c1nc(C(=O)NC(C)C)cs1 [Example 1377] |
| > 1000 nM | CC(C)NC(=O)c1csc(-c2c(-c3ccc(F)cc3)noc2CNC2CCCc3ccccc32)n1 (centres unmarked) [Example 1378] |
| > 1000 nM | COc1ccc(NCc2onc(-c3ccc(F)cc3)c2-c2nc(C(=O)NC(C)C)cs2)cc1OC [Example 1379] |
| > 1000 nM | CC(C)NC(=O)c1csc(-c2c(-c3ccc(F)cc3)noc2CN(CCC#N)Cc2ccccc2)n1 [Example 1381] |
| > 1000 nM | CNCc1onc(-c2ccc(F)cc2)c1-c1nc(C(=O)NC(C)C)cs1 [Example 1382] |
| > 1000 nM | CCNCc1onc(-c2ccc(F)cc2)c1-c1nc(C(=O)NC(C)C)cs1 [Example 1383] |

| IC50 | Structure (SMILES) |
| --- | --- |
| > 1000 nM | C#CCNCc1onc(-c2ccc(F)cc2)c1-c1nc(C(=O)NC(C)C)cs1 [Example 1384] |
| ≤ 1000 nM | CC(C)NC(=O)c1csc(-c2c(-c3ccc(F)cc3)noc2CNCC#N)n1 [Example 1385] |
| > 1000 nM | CC(C)NC(=O)c1csc(-c2c(-c3ccc(F)cc3)noc2CNC2CC2)n1 [Example 1386] |
| > 1000 nM | CC(C)NCc1onc(-c2ccc(F)cc2)c1-c1nc(C(=O)NC(C)C)cs1 [Example 1387] |
| > 1000 nM | CCCNCc1onc(-c2ccc(F)cc2)c1-c1nc(C(=O)NC(C)C)cs1 [Example 1388] |
| > 1000 nM | CC(C)NC(=O)c1csc(-c2c(-c3ccc(F)cc3)noc2CNCCN)n1 [Example 1389] |
| > 1000 nM | CC(C)NC(=O)c1csc(-c2c(-c3ccc(F)cc3)noc2CNCCC#N)n1 [Example 1390] |
| > 1000 nM | CC(C)NC(=O)c1csc(-c2c(-c3ccc(F)cc3)noc2CNC2CCC2)n1 [Example 1391] |
| > 1000 nM | CC(C)NC(=O)c1csc(-c2c(-c3ccc(F)cc3)noc2CNCC2CC2)n1 [Example 1392] |
| > 1000 nM | CCC(C)NCc1onc(-c2ccc(F)cc2)c1-c1nc(C(=O)NC(C)C)cs1 (centres unmarked) [Example 1393] |
| > 1000 nM | CC(C)CNCc1onc(-c2ccc(F)cc2)c1-c1nc(C(=O)NC(C)C)cs1 [Example 1394] |
| > 1000 nM | CC(C)NC(=O)c1csc(-c2c(-c3ccc(F)cc3)noc2CNCCCO)n1 [Example 1395] |
| > 1000 nM | CC(C)NC(=O)c1csc(-c2c(-c3ccc(F)cc3)noc2CNC(C)CO)n1 (centres unmarked) [Example 1396] |
| > 1000 nM | CC(C)NC(=O)c1csc(-c2c(-c3ccc(F)cc3)noc2CNC2CCCC2)n1 [Example 1397] |
| > 1000 nM | CCCC(C)NCc1onc(-c2ccc(F)cc2)c1-c1nc(C(=O)NC(C)C)cs1 (centres unmarked) [Example 1398] |
| > 1000 nM | CCC(C)CNCc1onc(-c2ccc(F)cc2)c1-c1nc(C(=O)NC(C)C)cs1 (centres unmarked) [Example 1399] |
| > 1000 nM | CC(C)NC(=O)c1csc(-c2c(-c3ccc(F)cc3)noc2CNC(C)C(C)C)n1 (centres unmarked) [Example 1400] |
| > 1000 nM | CC(C)CCNCc1onc(-c2ccc(F)cc2)c1-c1nc(C(=O)NC(C)C)cs1 [Example 1401] |
| > 1000 nM | CC(C)NC(=O)c1csc(-c2c(-c3ccc(F)cc3)noc2CNCCN(C)C)n1 [Example 1402] |
| > 1000 nM | COCC(C)NCc1onc(-c2ccc(F)cc2)c1-c1nc(C(=O)NC(C)C)cs1 (centres unmarked) [Example 1403] |
| > 1000 nM | CCC(CO)NCc1onc(-c2ccc(F)cc2)c1-c1nc(C(=O)NC(C)C)cs1 (centres unmarked) [Example 1405] |
| > 1000 nM | CC(C)NC(=O)c1csc(-c2c(-c3ccc(F)cc3)noc2CNCCCCO)n1 [Example 1406] |
| > 1000 nM | CC(C)NC(=O)c1csc(-c2c(-c3ccc(F)cc3)noc2CNCc2ccco2)n1 [Example 1407] |
| > 1000 nM | CC(C)NC(=O)c1csc(-c2c(-c3ccc(F)cc3)noc2CNC2CCCCC2)n1 [Example 1408] |
| > 1000 nM | CC(C)NC(=O)c1csc(-c2c(-c3ccc(F)cc3)noc2CNCC2CCCO2)n1 (centres unmarked) [Example 1409] |
| > 1000 nM | CC(C)NC(=O)c1csc(-c2c(-c3ccc(F)cc3)noc2CNCCC(C)(C)C)n1 [Example 1410] |

| IC50 | Structure (SMILES) |
| --- | --- |
| > 1000 nM | CC(C)CC(C)NCc1onc(-c2ccc(F)cc2)c1-c1nc(C(=O)NC(C)C)cs1 (centres unmarked) [Example 1411] |
| > 1000 nM | CC(C)NC(=O)c1csc(-c2c(-c3ccc(F)cc3)noc2CNC2CONC2=O)n1 (centres unmarked) [Example 1412] |
| > 1000 nM | CC(C)NC(=O)c1csc(-c2c(-c3ccc(F)cc3)noc2CNN2CCOCC2)n1 [Example 1413] |
| > 1000 nM | CC(C)NC(=O)c1csc(-c2c(-c3ccc(F)cc3)noc2CNC(CO)C(C)C)n1 (centres unmarked) [Example 1414] |
| > 1000 nM | CC(C)NC(=O)c1csc(-c2c(-c3ccc(F)cc3)noc2CNCc2ccccc2)n1 [Example 1415] |
| > 1000 nM | CC(C)NC(=O)c1csc(-c2c(-c3ccc(F)cc3)noc2CNCc2cccnc2)n1 [Example 1416] |
| > 1000 nM | CC(C)NC(=O)c1csc(-c2c(-c3ccc(F)cc3)noc2CNCc2ccccn2)n1 [Example 1417] |
| > 1000 nM | CC(C)NC(=O)c1csc(-c2c(-c3ccc(F)cc3)noc2CNCc2ccncc2)n1 [Example 1418] |
| > 1000 nM | CC(C)NC(=O)c1csc(-c2c(-c3ccc(F)cc3)noc2CNCc2cccs2)n1 [Example 1419] |
| > 1000 nM | CC1CCC(NCc2onc(-c3ccc(F)cc3)c2-c2nc(C(=O)NC(C)C)cs2)CC1 (centres unmarked) [Example 1420] |
| > 1000 nM | CC(C)NC(=O)c1csc(-c2c(-c3ccc(F)cc3)noc2CNCC2CCCCC2)n1 [Example 1421] |
| > 1000 nM | CC(C)NC(=O)c1csc(-c2c(-c3ccc(F)cc3)noc2CNC2CCCCCC2)n1 [Example 1422] |
| > 1000 nM | CC(C)NC(=O)c1csc(-c2c(-c3ccc(F)cc3)noc2CNC2CCCCC2C)n1 (centres unmarked) [Example 1423] |
| ≤ 1000 nM | CC(C)NC(=O)c1csc(-c2c(-c3ccc(F)cc3)noc2CNCCN2CCCC2)n1 [Example 1424] |
| > 1000 nM | CC(C)NC(=O)c1csc(-c2c(-c3ccc(F)cc3)noc2CNN2CCN(C)CC2)n1 [Example 1425] |
| > 1000 nM | CCN(CC)CCNCc1onc(-c2ccc(F)cc2)c1-c1nc(C(=O)NC(C)C)cs1 [Example 1426] |
| > 1000 nM | Cc1cccc(CNCc2onc(-c3ccc(F)cc3)c2-c2nc(C(=O)NC(C)C)cs2)c1 [Example 1427] |
| > 1000 nM | CC(C)NC(=O)c1csc(-c2c(-c3ccc(F)cc3)noc2CN[C@@H](C)c2ccccc2)n1 [Example 1428] |
| > 1000 nM | CC(C)NC(=O)c1csc(-c2c(-c3ccc(F)cc3)noc2CN[C@H](C)c2ccccc2)n1 [Example 1429] |
| > 1000 nM | CC(C)NC(=O)c1csc(-c2c(-c3ccc(F)cc3)noc2CNCCc2ccccc2)n1 [Example 1430] |
| > 1000 nM | Cc1ccccc1CNCc1onc(-c2ccc(F)cc2)c1-c1nc(C(=O)NC(C)C)cs1 [Example 1431] |
| > 1000 nM | Cc1ccc(CNCc2onc(-c3ccc(F)cc3)c2-c2nc(C(=O)NC(C)C)cs2)cc1 [Example 1432] |
| > 1000 nM | Cc1cnc(CNCc2onc(-c3ccc(F)cc3)c2-c2nc(C(=O)NC(C)C)cs2)cn1 [Example 1433] |
| > 1000 nM | CC(C)NC(=O)c1csc(-c2c(-c3ccc(F)cc3)noc2CNCc2cccc(F)c2)n1 [Example 1434] |
| > 1000 nM | CC(C)NC(=O)c1csc(-c2c(-c3ccc(F)cc3)noc2CNCc2ccc(F)cc2)n1 [Example 1435] |
